Laboratory results taken from article PMC6855250 (Nature, 2019).

Molecular target: SidJ∆N99-CaM (Legionella pneumophila, UniProt Q5ZTK6)
Sequence (Q5ZTK6 whole entry, looked up): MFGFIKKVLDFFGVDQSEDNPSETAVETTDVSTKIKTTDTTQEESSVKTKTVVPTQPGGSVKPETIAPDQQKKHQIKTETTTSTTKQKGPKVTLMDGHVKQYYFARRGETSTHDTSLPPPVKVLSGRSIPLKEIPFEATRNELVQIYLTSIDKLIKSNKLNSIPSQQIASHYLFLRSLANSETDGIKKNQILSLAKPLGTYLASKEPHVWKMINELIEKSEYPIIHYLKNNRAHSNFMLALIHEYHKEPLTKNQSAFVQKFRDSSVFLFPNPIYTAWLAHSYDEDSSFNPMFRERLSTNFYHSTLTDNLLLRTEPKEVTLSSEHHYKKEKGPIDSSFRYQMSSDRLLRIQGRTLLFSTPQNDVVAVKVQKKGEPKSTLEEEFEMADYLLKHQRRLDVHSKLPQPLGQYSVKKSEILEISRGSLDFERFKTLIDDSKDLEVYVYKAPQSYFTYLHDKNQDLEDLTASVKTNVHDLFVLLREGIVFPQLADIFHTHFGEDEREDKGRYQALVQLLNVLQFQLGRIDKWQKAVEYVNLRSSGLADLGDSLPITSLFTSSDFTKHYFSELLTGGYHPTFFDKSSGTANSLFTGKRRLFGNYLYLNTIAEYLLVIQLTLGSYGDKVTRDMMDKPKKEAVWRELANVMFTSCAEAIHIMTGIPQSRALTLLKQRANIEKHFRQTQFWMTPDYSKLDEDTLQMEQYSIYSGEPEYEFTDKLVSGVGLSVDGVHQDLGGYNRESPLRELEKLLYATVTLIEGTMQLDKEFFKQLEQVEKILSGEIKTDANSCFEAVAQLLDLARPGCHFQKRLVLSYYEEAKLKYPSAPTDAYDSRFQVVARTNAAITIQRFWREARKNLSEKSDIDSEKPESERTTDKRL

Nc1ncnc2c1ncn2[C@@H]1O[C@H](COP(=O)(O)O)[C@@H](O)[C@H]1O [AMP]
X-ray crystal structure, 3.11 Å: We observed an AMP moiety bound in a pocket formed in the CD
